Laboratory results taken from patent US20040097534A1, “Composition for the protection and regeneration of nerve cells containing berberine derivatives” (EUGENBIO INC., priority 2001, published 2004).
Several values for one entry are separate records, joined by “and”; a condition that tells them apart may be missing. Equal entries are not always repeated. Entries after “also recorded” stand apart in the source; their conditions may differ.

Legend:
[1] = system: SH-SY5Y cells; experiment: MTT assay, SH-SY5Y survival under oxidative stress (H2O2); format: cell-based, human
Method: SH-SY5Y cells were treated with H2O2 for 30 minutes to induce cell injuries. 3 hours before the cells were treated with H2O2, berberine (0.25˜3.5 μg) was added to cell culture to examine its cell protection effect (see, Table 4 and FIG. 4b).

[2] = system: PC12 cells; experiment: MTT assay, PC12 survival under serum deprivation-induced stress; format: cell-based, rat; conditions: RPMI + NGF 100 ng/ml
Method: (§1) Cell injuries under condition of serum deprivation-induced stress and oxidative stress were measured by MTT assay. For MTT assay, Cells were seeded into N2 medium in an amount of 7.5×10^3 cells, and then a neurotoxin or a nerve growth factor was added thereto to differentiate the cells and then 0.1 volume of 4 mg/ml MTT was further added. The mixture was stored at 37° C. for 3-4 hours. After 100 μl of solubilization buffer was added to the mixture and then stored for 24 hours, O.D. values were measured by ELISA assay.
NGF, increasing cell survival and inducing cell differentiation, was used as a positive control. After the cells were treated with berberine (0.25˜3 μg/ml), the cells were cultured for 2 days to induce nerve regeneration (see, Table 3 and FIG. 5a).

[3] = system: PC12 cells; experiment: MTT assay, PC12 survival under dexamethasone (glucocorticoid) stress; format: cell-based, rat
Method: as §1
Glucocorticoids are hormones secreted from the adrenal glands, and involve in a variety of metabolic processes including glycometabolism. In particular, stress causes release of glucocorticoids to reduce cell divisions of neuronal stem cells in the brain and induce apoptosis of nerve cells. Therefore, PC12 cells were treated with dexamethasone, a glucocorticoid derivative, to examine the effect of berberine against apoptosis of nerve cells. 3 hours after treatment with berberine, dexamethasone (1) was added to a culture solution and incubated for 2 days to induce neuroregeneration (see, Table 5 and FIG. 5b).

[4] = system: HiB5 cells
Method: Since HiB5 cells derived from white rat embryonic hippocampus were prepared by retroviral infection of temperature sensitive SV40 large T antigen, they divided at […], but the cell division stopped at 39° C. (body temperature of rat). […] Cell culture medium was prepared by adding a mixture of 10% FBS (fetal bovine serum), penicillin/streptomycin, glutamine and sodium pyruvate (0.11 g/L) to DMEM. On differentiating at 39° C., another cell culture medium was prepared by adding pyruvate to a serum-free medium (N2, containing DMEM/F12, insulin, transferrin, Putreseine and BSA; Botten Stein & Sato., 1979). PC12 cells and SH-SY5Y cells were cultured in DMEM supplemented with 10% FBS. In order to differentiate the cells, NGF or retinoic acid was added to a serum-free medium.
as §1
HiB5 cell line used in this experiment was prepared by infecting primary cultured cells of temperature sensitive SV40 large T antigen in rat embryonic hippocampus (embryonic day 16) using retroviral vectors. The HiB5 cell line was divided at the permissive temperature (32° C.), but the cell division stopped at the non-permissive temperature (body temperature of rat: 39° C.). A small number of GABAegic neurons differentiated in the rat embryonic hippocampus (embryonic day 16), and glutamatergic pyramidal cell precursors still divided, some of which penetrated into dentate gyrus regions through dentate migration pathways in embryonic day 18 to differentiate into glutamatergic granule cells (Altman J., Bayer. S. A. (1990a) Prolonged sojourn of developing pyramidal cells in the intermediate zone of the hippocampus and their settling in the stratum pyramidale. J Comp Neurol. 301, 343-64.; Altman J., Das G. D. (1965) Post-natal origin of microneurones in the rat brain, Nature. 28, 953-956.). When cells stop their cell-division and start to differentiate in vivo, apoptosis occurs.
In order to evaluate the protective effect of berberine against apoptosis and the effect of increasing cell survival, HiB5 cells were cultured under conditions for initiation of differentiation. At this time, the culture was treated with berberine at various concentrations (50 ng/ml˜6 μg/ml). The protective effect of berberine against apoptosis was measured by MTT assay. A positive control group was treated with bFGF to block apoptosis, increase cell survival and induce the differentiation into nerve cells.
Since HiB5 neuronal stem cells undergo cell death during the differentiation, the cells were considered as a negative control group. The percentage of O.D. values is determined for the groups treated with bFGF and berberine, respectively.

[5] = system: HiB5 cells; experiment: Induction of differentiation of HiB5 cells into nerve cells (neurite count, confocal); format: cell-based, white rat; conditions: HiB5, bFGF positive control
Method: (§2) Thereafter, the culture was treated with berberine and further cultured for 2 days. The cultured cells were immunostained with nerve cell-specific labeled molecule, and then the number of cells having neurites longer than cell bodies was counted under a confocal microscope. A positive control was treated with bFGF under the same condition as described above to induce the differentiation into nerve cells. In addition, the neuroregenerative effect was examined after berberine together with bFGF was treated. The differentiation degree was measured by double-staining neurites with nerve cell-specific labeled molecule (anti-neurofilament antibody) and FITC-labeled secondary antibody (green), followed by staining cell nuclei with propidium iodide (red).

[6] = system: nerve cells in CA1, dentate gyrus and entorhinal cortex; experiment: Animal model for dementia (ibotenic acid into entorhinal cortex), calbindin-positive neuron count; format: in vivo, rat
Method: After white rat brain was fixed with a stereotaxic frame, 1.5 μl (1 mg/ml) of ibotenic acid and PBS, or 1.5 μl (1 mg/ml) of berberine was injected into the entorhinal cortex region using a microinjector to prepare a model for dementia. […]
Brain was fixed with 4% paraformaldehyde and cryosected to a thickness of 40 μm, and then the cryosected brain was permeablized with 0.5% Triton X-100 for 20 minutes and blocked using 15% blocking serum for 2 hours. After reacting with anti-calbindin antibody at a temperature 4° C. for 16 hours and then further reacting with FITC-labeled secondary antibody or rhodamin (TRITC)-labeled secondary antibody for 1 hour, the cells were fixed on a slide before examining under a confocal microscope.
As an animal model for dementia, ibotenic acid was microinjected into the entorhinal cortex of adult rat brain using a stereotaxic frame.
First, an adult rat was anesthetized, and its head was fixed with a stereotaxic frame. Subsequently, 1.5 μl (1 mg/ml) of ibotenic acid was injected into the entorhinal cortex region to prepare a model for dementia, and then berberine was injected into the same site. 2 weeks after operation, brain tissue sections were counter-stained with hematocylin to examine apoptosis and protective effect. After fluorescence-staining the cells, regions used for cell count were represented as squares (FIG. 14). In addition, the cells were fluorescence-stained with calbindin antibody, a nerve-specific marker, to examine nerve cell survival (see, Tables 8 to 10, FIGS. 11 and 12).

[7] = system: nerve cells highly sensitive to NMDA receptors; conditions: MK-801 to young rat (7-8-days old); cited from earlier work
[8] = system: SH-SY5Y cells; experiment: MTT assay, SH-SY5Y survival under serum deprivation-induced stress; format: cell-based, human; conditions: N2 + retinoic acid 5 μM
Method: as §1
In order to prepare a stroke-like cell model using SH-SY5Y, the cells were cultured under serum deprivation. […] Retinoic acid, which induces the differentiation of SH-SY5Y as a cell differentiation factor, was used as a positive control. 3 hours before depriving serum, the cells were treated with berberine (0.25˜3 μg). The cells were cultured in chemically defined media (N2) for 2 days to induce nerve regeneration (see, Table 2 and FIG. 4a).

[9] = system: SH-SY5Y cells; experiment: Neurite regeneration in SH-SY5Y cells; format: cell-based, human; conditions: retinoic acid
Method: as §2, with “(red). In order to examine the effect of berberine on neurite regeneration, SH-SY5Y cells were used as differentiated nerve cell lines. Retinoic acid inducing neurite growth was used as a positive control.” for “(red).”

[10] = N2 + dexamethasone + NGF 100 ng/ml
[11] = Ibotenic Acid alone (reference)

OO [H2O2, reference compound]
O.D. ([1]; N2, H2O2 150 μM alone): 0.056 | Average (O.D. relative to H2O2 alone) ([1]; N2, H2O2 150 μM alone (reference = 100%; N2 without H2O2 = 429%)): 100%

NGF: nerve growth factor, positive control in PC12 cells
O.D. ([2]; 2 days): 0.349 | Average (O.D. relative to RPMI) ([2]; RPMI = 100%): 208% | Average (O.D. relative to dexamethasone alone) [3, 10]: 147% | O.D. [3, 10]: 0.283 | cell survival rate increase ([3]; dexamethasone stress, 2 days): about 1.5 times

C[C@@H]1C[C@H]2[C@@H]3CCC4=CC(=O)C=C[C@]4(C)[C@@]3(F)[C@@H](O)C[C@]2(C)[C@@]1(O)C(=O)CO [Dexamethasone, dexamethasone, reference compound]
O.D. ([3]; N2 + dexamethasone 1 μM alone): 0.193 | Average (O.D. relative to dexamethasone alone) ([3]; N2 + dexamethasone 1 μM alone (reference = 100%; N2 = 118%)): 100%

bFGF: basic fibroblast growth factor, positive control increasing HiB5 survival and differentiation
cell survival rate / protective effect against apoptosis, increase over control ([4]; HiB5 under differentiation conditions, MTT): 1.5 times and 1.6 times | O.D. % ([4]; bFGF 20 ng, control = 100): 150% | differentiation into nerve cells (morphology) [5]: induced the differentiation into nerve cells; also recorded: cell bodies got smaller and neurites got longer

N[C@H](C(=O)O)c1cc(=O)[nH]o1 [Ibotenic Acid, ibotenic acid, reference compound]
cell number relative to Ibotenic Acid average = 100, CA (individual animals #1-#3) ([6]; Ibotenic Acid alone): 116 and 112 and 73 | cell number relative to Ibotenic Acid average = 100, DG (individual animals #1-#3) ([6]; Ibotenic Acid alone): 123 and 105 and 72 | cell number relative to Ibotenic Acid average = 100, ENT (individual animals #1-#3) ([6]; Ibotenic Acid alone): 100 and 105 and 94 | cell number, CA (individual animals #1-#3) ([6]; Ibotenic Acid alone): 57 and 55 and 36 | cell number, CA, AVR ([6]; Ibotenic Acid alone): 49.3 | cell number, DG (individual animals #1-#3) ([6]; Ibotenic Acid alone): 227 and 193 and 133 | cell number, DG, AVR ([6]; Ibotenic Acid alone): 184.3 | cell number, ENT (individual animals #1-#3) ([6]; Ibotenic Acid alone): 73 and 77 and 68 | cell number, ENT, AVR ([6]; Ibotenic Acid alone): 72.7 | cell number (%) relative to Ibotenic Acid, CA, average [6, 11]: 100% | cell number (%) relative to Ibotenic Acid, DG, average [6, 11]: 100% | cell number (%) relative to Ibotenic Acid, ENT, average [6, 11]: 100% | reduction of calbindin-positive neurons in the hippocampus and entorhinal cortex ([6]; ibotenic acid alone, 2 weeks after microinjection): 30˜40% | calbindin-positive neurons, recovery ([6]; ibotenic acid alone, 4 weeks after microinjection): recovered somewhat; also recorded: some of them were recovered

MK-801
number of dead nerve cells, of total nerve cells [7]: 12-26%

CC1=C(/C=C/C(C)=C/C=C/C(C)=C/C(=O)O)C(C)(C)CCC1 [Retinoic acid, reference compound]
O.D. ([8]; 2 days): 0.871. | Average (O.D. relative to N2) ([8]; N2 = 100%): 130% | Average (O.D. relative to H2O2 alone) ([1]; N2, H2O2 + retinoic acid 5 μM): 321% | O.D. ([1]; N2, H2O2 + retinoic acid 5 μM): 0.179 | Number of differentiated cells ([9]; N2 = 22.30): 18.91 | total average cell numbers ([9]; N2 = 42.33): 24.75 | Average (%) of differentiated cells ([9]; N2 = 44.47): 81.59%
